Measured values as given in patent US20130101615A1, “METHODS FOR PREVENTING OR TREATING A DISEASE OR CONDITION ASSOCIATED WITH MYCOBACTERIUM AVIUM SUBSPECIES PARATUBERCULOSIS” (priority 2005, published 2013).
Read-outs that look alike come from different tables or passages of the source.

What was measured:
MAP = experiment: Growth inhibition of MAP (strain not stated or MAP strains in general); conditions: for effect on growth of MAP, in words: MAP strains in general; for %−ΔcGI (percent decrease in cumulative GI): Example 3, strain not stated
M. avium 101 = format: cell-based, M. avium subspecies avium; conditions: for %-ΔcGI: Example 5
[1] = system: MAP Dominic (ATCC 43545), isolated from human with Crohn's disease; format: cell-based, Mycobacterium avium subspecies paratuberculosis; conditions: MAP (Dominic), Table 4
MAP ATCC 19698 (bovine) = format: cell-based, Mycobacterium avium subspecies paratuberculosis; conditions: for effect on proliferation / cumulative growth index, in words: MAP ATCC 19698
M. avium ATCC 25291 = format: cell-based, M. avium subspecies avium; conditions: M. avium ATCC 25291

For `O=C1CCC(N2C(=O)c3ccccc3C2=O)C(=O)N1` (stereo not drawn) [Thalidomide (+), thalidomide], the “effect on growth of MAP, in words” value (MAP) was “more inhibitory than thalidomide (−)”, the “%-ΔcGI” value (M. avium 101; 1 μg/ml) was 4% and the “%-ΔcGI” value (M. avium 101; 4 μg/ml) was −5%. The “%-ΔcGI” value (M. avium 101; 16 μg/ml) was 16%, the “%-ΔcGI” value (M. avium 101; 64 μg/ml) was −19% and the “%-ΔcGI” value ([1]; 1 μg/ml) was −4%. The “%-ΔcGI” value ([1]; 4 μg/ml) was 1%, the “%-ΔcGI” value ([1]; 16 μg/ml) was −14% and the “%-ΔcGI” value ([1]; 64 μg/ml) was −58%.
For `CC1(C)S[C@@H]2[C@H](NC(=O)[C@H](N)c3ccccc3)C(=O)N2[C@H]1C(=O)O` [ampicillin], the “%−ΔcGI (percent decrease in cumulative GI)” value (MAP; 32 μg/ml) was 21%.
`CC[C@H]1OC(=O)[C@H](C)[C@@H](O[C@H]2C[C@@](C)(OC)[C@@H](O)[C@H](C)O2)[C@H](C)[C@@H](O[C@@H]2O[C@H](C)C[C@H](N(C)C)[C@H]2O)[C@](C)(OC)C[C@@H](C)C(=O)[C@H](C)[C@@H](O)[C@]1(C)O` [clarithromycin] was tested, and the “%−ΔcGI (percent decrease in cumulative GI)” value (MAP ATCC 19698 (bovine); 4 μg/ml, MAP 19698, Example 3) was roughly 80%, the “%−ΔcGI (percent decrease in cumulative GI)” value (MAP; 0.5 μg/ml) was no less than 86% and the “effect on growth, in words” value (M. avium ATCC 25291) was “no evidence of growth”.
With `CN(Cc1cnc2nc(N)nc(N)c2n1)c1ccc(C(=O)N[C@@H](CCC(=O)O)C(=O)O)cc1` [methotrexate] the “%−ΔcGI (percent decrease in cumulative GI)” value (MAP; 2 μg/ml) was 40%, the “%−ΔcGI (percent decrease in cumulative GI)” value (MAP; 4 μg/ml) was no less than 75% and the “effect on growth of MAP, in words” value (MAP) was “inhibit the growth kinetics of MAP”.
`Nc1ccc(C(=O)O)c(O)c1` [p-aminosalicylic acid] was tested, and the “effect on proliferation / cumulative growth index, in words” value (MAP ATCC 19698 (bovine)) was “inhibited the proliferation of MAP (ATCC 19698) in a dose-dependent manner”.
`Nc1ccc(S(=O)(=O)Nc2ccccn2)cc1` [sulfapyridine] was tested, and the “effect on proliferation / cumulative growth index, in words” value (MAP ATCC 19698 (bovine)) was “little effect on the cumulative growth index of MAP” and the “effect on growth, in words” value (M. avium 101) was “inhibited M. avium 101 in a dose-dependent manner”.
For `O=C(O)c1cc(/N=N/c2ccc(S(=O)(=O)Nc3ccccn3)cc2)ccc1O` [sulfasalazine], the “effect on proliferation / cumulative growth index, in words” value (MAP ATCC 19698 (bovine)) was “little effect on the cumulative growth index of MAP”.
